According to patent publication US20050171037A1, “Therapeutic combinations” (Agouron Pharmaceuticals, Inc., priority 2004, published 2005):
Read-outs that look alike come from different tables or passages of the source.

Key:
[1] = Compound B pharmacokinetics after oral administration of a single dose alone (fasting) and with ritonavir (fed), human subjects; assay type: in vivo; details: for half-life / Cmax / AUC / Tmax: plasma; for half-life / Ae % (drug recovered unchanged in urine, percent of administered dose): arithmetic mean; for half-life: read-out: t1/2 (terminal phase plasma half-life) (converted); for AUC: read-out: AUC (area under the concentration-time curve from time 0 to infinity); for Tmax: median
Protocol: Nos. 11/008325, filed Dec. 8, 2004, and 60/591,351, filed Jul. 26, 2004, all of which are hereby incorporated by reference for this purpose. A total of 21 human subjects were administered a single 300 mg, 900 mg, 1800 mg, or 3600 mg dose of a spray-dried composition comprising 90 wt % amorphous Compound B and 10 wt % hydroxypropyl methyl cellulose acetate succinate (HPMCAS) under fasting conditions. […] Each plasma sample was analyzed for the presence of Compound B and the following pharmacokinetic parameters for Compound B were determined for each subject: area under the concentration-time curve from time 0 extrapolated to infinity (AUC), maximum observed plasma concentration (Cmax), time to first occurrence of Cmax (Tmax), terminal phase plasma half-life (t %), CL/F=apparent oral clearance, and cumulative amount of drug recovered unchanged in the urine expressed as a percentage of administered dose (Ae %).

[2] = as above; assay type: in vivo; details: geometric mean
[3] = po, 300 mg, single oral dose 300 mg (active dose 270 mg), alone, fasting
[4] = po, 300 mg, single oral dose 300 mg (active dose 270 mg), alone, fasting, geometric mean
[5] = po, 900 mg, single oral dose 900 mg (active dose 810 mg), alone, fasting
[6] = po, 900 mg, single oral dose 900 mg (active dose 810 mg), alone, fasting, geometric mean
[7] = po, 1800 mg, single oral dose 1800 mg (active dose 1620 mg), alone, fasting
[8] = po, 1800 mg, single oral dose 1800 mg (active dose 1620 mg), alone, fasting, geometric mean
[9] = po, 3600 mg, single oral dose 3600 mg (active dose 3240 mg), alone, fasting
[10] = po, 3600 mg, single oral dose 3600 mg (active dose 3240 mg), alone, fasting, geometric mean
[11] = po, single oral dose 300 mg (active 270 mg) + ritonavir (100 mg every 12 hours for 3 doses), fed
[12] = po, single oral dose 450 mg (active 405 mg) + ritonavir (100 mg every 12 hours for 3 doses), fed

Q: Which half-life [1, 3] does the source give for `Cc1c(O)cccc1C(=O)N[C@@H](Cc1ccccc1)[C@H](O)C(=O)N1CC(F)(F)C(C)(C)[C@H]1C(=O)NCC(F)(F)F` [Compound B, 4,4-difluoro-1-{(2S,3S)-2-hydroxy-3-[(3-hydroxy-2-methylbenzoyl)amino]-4-phenylbutanoyl}-3,3-dimethyl-N-(2,2,2-trifluoroethyl)-L-prolinamide] here?
A: The half-life was 2.76 h.

Q: What about the Cmax [1, 4] of the same compound?
A: The Cmax was 1530 ng/mL.

Q: What about the AUC [1, 4] of the same compound?
A: The AUC was 6110 ng·h/mL.

Q: And the Tmax [1, 3]?
A: Its Tmax is 0.5 h.

Q: What about the half-life [1, 5] of the same compound?
A: Its half-life is 3.25 h.

Q: And the Cmax [1, 6]?
A: Its Cmax is 4610 ng/mL.

Q: And the AUC [1, 6]?
A: Its AUC is 28200 ng·h/mL.

Q: What about the Tmax [1, 5] of the same compound?
A: The Tmax was 2 h.

Q: And the half-life [1, 7]?
A: Its half-life is 3.6 h.

Q: And the Cmax [1, 8]?
A: The Cmax was 8670 ng/mL.

Q: And the AUC [1, 8]?
A: Its AUC is 74500 ng·h/mL.

Q: What about the Tmax [1, 7] of the same compound?
A: The Tmax was 3.02 h.

Q: And the half-life [1, 9]?
A: The half-life was 4.15 h.

Q: And the Cmax [1, 10]?
A: Its Cmax is 14500 ng/mL.

Q: And the AUC [1, 10]?
A: Its AUC is 164000 ng·h/mL.

Q: What about the Tmax [1, 9] of the same compound?
A: Its Tmax is 4 h.

Q: And the half-life [1, 11]?
A: The half-life was 8.54 h.

Q: And the Tmax [1, 11]?
A: The Tmax was 4 h.

Q: What about the half-life [1, 12] of the same compound?
A: Its half-life is 10.3 h.

Q: And the Cmax ([1]; po, single oral dose 450 mg (active 405 mg) + ritonavir (100 mg every 12 hours for 3 doses), fed, geometric mean)?
A: Its Cmax is 3830 ng/mL.

Q: And the Tmax [1, 12]?
A: Its Tmax is 4.02 h.

Q: And the AUC ([1]; single oral dose 300 mg (active 270 mg) + ritonavir (100 mg every 12 hours for 3 doses), fed, geometric mean)?
A: The AUC was 34800 ng·h/mL.

Q: And the “Ae % (drug recovered unchanged in urine, percent of administered dose)” value ([1]; single oral dose 300 mg (active 270 mg) + ritonavir (100 mg every 12 hours for 3 doses), fed)?
A: The value was 17.7%.

Q: And the “Ae % (drug recovered unchanged in urine, percent of administered dose)” value ([1]; single oral dose 300 mg (active dose 270 mg), alone, fasting)?
A: The value was 3.67%.

Q: And the “CL/F (apparent oral clearance)” value ([1]; single oral dose 300 mg (active dose 270 mg), alone, fasting, geometric mean)?
A: Its value is 44.2 L/h.

Q: What about the “Ae % (drug recovered unchanged in urine, percent of administered dose)” value ([1]; single oral dose 450 mg (active 405 mg) + ritonavir (100 mg every 12 hours for 3 doses), fed) of the same compound?
A: The value was 17.6%.

Q: What about the “AUC (area under the concentration-time curve from time 0 to infinity)” value ([1]; single oral dose 450 mg (active 405 mg) + ritonavir (100 mg every 12 hours for 3 doses), fed, geometric mean) of the same compound?
A: The value was 51600 ng·h/mL.

Q: And the “Ae % (drug recovered unchanged in urine, percent of administered dose)” value ([1]; single oral dose 900 mg (active dose 810 mg), alone, fasting)?
A: The value was 4.89%.

Q: What about the “CL/F (apparent oral clearance)” value ([1]; single oral dose 900 mg (active dose 810 mg), alone, fasting, geometric mean) of the same compound?
A: The value was 28.7 L/h.

Q: And the “Ae % (drug recovered unchanged in urine, percent of administered dose)” value ([1]; single oral dose 1800 mg (active dose 1620 mg), alone, fasting)?
A: The value was 10.4%.

Q: What about the “CL/F (apparent oral clearance)” value ([1]; single oral dose 1800 mg (active dose 1620 mg), alone, fasting, geometric mean) of the same compound?
A: The value was 21.7 L/h.

Q: And the “Ae % (drug recovered unchanged in urine, percent of administered dose)” value ([1]; single oral dose 3600 mg (active dose 3240 mg), alone, fasting)?
A: Its value is 11.8%.

Q: What about the “CL/F (apparent oral clearance)” value ([1]; single oral dose 3600 mg (active dose 3240 mg), alone, fasting, geometric mean) of the same compound?
A: The value was 19.7 L/h.

Q: And the Cmax ([2]; plasma, po, single oral dose 300 mg (active 270 mg) + ritonavir (100 mg every 12 hours for 3 doses))?
A: The Cmax was 3100 ng/mL.

Q: What about the “CL/F (apparent oral clearance)” value ([2]; single oral dose 300 mg (active 270 mg) + ritonavir (100 mg every 12 hours for 3 doses)) of the same compound?
A: The value was 7.75 L/h.

Q: What about the “CL/F (apparent oral clearance)” value ([2]; single oral dose 450 mg (active 405 mg) + ritonavir (100 mg every 12 hours for 3 doses)) of the same compound?
A: Its value is 7.84 L/h.
